Assay results taken from PMC10920428 (Applied Microbiology and Biotechnology, 2024).

Target: T1, homogentisate solanesyltransferase (CrHST) (Chlamydomonas reinhardtii, UniProt A1JHN0)
T1 construct: gene HST; N-terminal GST tag (pDEST15), expressed in E. coli BL21 AI
Assay: biochemical

T1 sequence (A1JHN0 51-370): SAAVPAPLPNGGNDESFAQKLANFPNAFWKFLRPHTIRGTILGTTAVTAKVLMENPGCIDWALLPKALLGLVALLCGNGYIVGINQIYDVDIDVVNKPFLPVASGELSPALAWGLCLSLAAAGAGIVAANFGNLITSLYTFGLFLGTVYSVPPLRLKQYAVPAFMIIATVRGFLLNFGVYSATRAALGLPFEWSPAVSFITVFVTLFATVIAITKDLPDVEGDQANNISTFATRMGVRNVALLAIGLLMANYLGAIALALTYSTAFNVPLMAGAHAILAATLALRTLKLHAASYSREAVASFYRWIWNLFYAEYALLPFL

- IC50: 3.63 ± 0.53 µM
Compound: Cc1cccc(C2CC2)c1Oc1nnc(Cl)cc1O [DMC, Des-Morpholinocarbony Cyclopyrimorate]
